Here are results for eight compounds from ChEMBL document CHEMBL1157709, “Enhancement of EGFR tyrosine kinase inhibition by C-C multiple bonds-containing anilinoquinazolines” (Bioorg Med Chem, 2010).

Calls of active or inactive are those of the source. The calls are words filed in the database; no cut-off is given here.

Experiment [1] deals with T1, Epidermal growth factor receptor (Homo sapiens, UniProt P00533). Nature of the experiment: Reversible inhibitory activity of EGF-induced EGFR phosphorylation in human A431 cells at 10 to 100 nM by immunoblot analysis. Conditions: A-431. A general note: Immunoblotting shows a protein as a band on a membrane.
Experiment [2] addresses T1, Epidermal growth factor receptor. As to the kind of experiment: Inhibition of recombinant EGFR by ELISA. In general terms: In an ELISA, binding on a coated surface is turned into a signal by an enzyme label.
Experiment [3] concerns A-431. As to the kind of experiment: cells. Conditions: Homo sapiens, A-431, 72 h. In kind it is functional.
Description: Growth inhibition of human A431 cells after 72 hrs by MTT assay
The test system of experiment [4] is A-431. As to the kind of experiment: Cell cycle arrest in human A431 cells by accumulation at G2/M phase at 1 uM after 24 hrs by propidium iodide staining-based flow cytometry (reference value: 11.1+/-3.1%). In kind it is functional. On the technique in general: A flow cytometer gives signals particle by particle.
The test system of experiment [5] is A-431. Nature of the experiment: Cell cycle arrest in human A431 cells by accumulation at G2/M phase at 3 uM after 24 hrs by propidium iodide staining-based flow cytometry (reference value: 11.1+/-3.1%). In kind it is functional.
For experiment [6], the system named is A-431. Nature of the experiment: Cell cycle arrest in human A431 cells by accumulation at S phase at 3 uM after 24 hrs by propidium iodide staining-based flow cytometry (reference value: 48.5+/-4.2%). In kind it is functional.
The subject of experiment [7] is A-431. Nature of the experiment: Induction of apoptosis in human A431 cells assessed as pre-necrotic cells level at 3 uM after 12 hrs by annexin V/propidium iodide staining-based flow cytometry (Rvb=0.9+/-0.1%). The format is functional.
The subject of experiment [8] is A-431. As to the kind of experiment: Cell cycle arrest in human A431 cells by accumulation at G1 phase at 3 uM after 24 hrs by propidium iodide staining-based flow cytometry (reference value: 39.8+/-0.2%). The format is functional.
The test system of experiment [9] is A-431. Nature of the experiment: Induction of apoptosis in human A431 cells assessed as viable cells level at 3 uM after 12 hrs by annexin V/propidium iodide staining-based flow cytometry (reference value: 95.4+/-0.5%). The format is functional.
Experiment [10] relates to A-431. As to the kind of experiment: Induction of apoptosis in human A431 cells assessed as early apoptotic cells level at 3 uM after 12 hrs by annexin V/propidium iodide staining-based flow cytometry (Rvb=3.1+/-0.5%). The format is functional.
In experiment [11] the test system is A-431. Nature of the experiment: Cell cycle arrest in human A431 cells by accumulation at S phase at 1 uM after 24 hrs by propidium iodide staining-based flow cytometry (reference value: 48.5+/-4.2%). In kind it is functional.
Experiment [12] relates to A-431. Nature of the experiment: Induction of apoptosis in human A431 cells assessed as late apoptotic/necrotic cells level at 3 uM after 12 hrs by annexin V/propidium iodide staining-based flow cytometry (Rvb=0.6+/-0.1%). In kind it is functional.
The test system of experiment [13] is A-431. As to the kind of experiment: Cell cycle arrest in human A431 cells by accumulation at G1 phase at 1 uM after 24 hrs by propidium iodide staining-based flow cytometry (reference value: 39.8+/-0.2%). In kind it is functional.

T1 sequence (P00533 whole entry): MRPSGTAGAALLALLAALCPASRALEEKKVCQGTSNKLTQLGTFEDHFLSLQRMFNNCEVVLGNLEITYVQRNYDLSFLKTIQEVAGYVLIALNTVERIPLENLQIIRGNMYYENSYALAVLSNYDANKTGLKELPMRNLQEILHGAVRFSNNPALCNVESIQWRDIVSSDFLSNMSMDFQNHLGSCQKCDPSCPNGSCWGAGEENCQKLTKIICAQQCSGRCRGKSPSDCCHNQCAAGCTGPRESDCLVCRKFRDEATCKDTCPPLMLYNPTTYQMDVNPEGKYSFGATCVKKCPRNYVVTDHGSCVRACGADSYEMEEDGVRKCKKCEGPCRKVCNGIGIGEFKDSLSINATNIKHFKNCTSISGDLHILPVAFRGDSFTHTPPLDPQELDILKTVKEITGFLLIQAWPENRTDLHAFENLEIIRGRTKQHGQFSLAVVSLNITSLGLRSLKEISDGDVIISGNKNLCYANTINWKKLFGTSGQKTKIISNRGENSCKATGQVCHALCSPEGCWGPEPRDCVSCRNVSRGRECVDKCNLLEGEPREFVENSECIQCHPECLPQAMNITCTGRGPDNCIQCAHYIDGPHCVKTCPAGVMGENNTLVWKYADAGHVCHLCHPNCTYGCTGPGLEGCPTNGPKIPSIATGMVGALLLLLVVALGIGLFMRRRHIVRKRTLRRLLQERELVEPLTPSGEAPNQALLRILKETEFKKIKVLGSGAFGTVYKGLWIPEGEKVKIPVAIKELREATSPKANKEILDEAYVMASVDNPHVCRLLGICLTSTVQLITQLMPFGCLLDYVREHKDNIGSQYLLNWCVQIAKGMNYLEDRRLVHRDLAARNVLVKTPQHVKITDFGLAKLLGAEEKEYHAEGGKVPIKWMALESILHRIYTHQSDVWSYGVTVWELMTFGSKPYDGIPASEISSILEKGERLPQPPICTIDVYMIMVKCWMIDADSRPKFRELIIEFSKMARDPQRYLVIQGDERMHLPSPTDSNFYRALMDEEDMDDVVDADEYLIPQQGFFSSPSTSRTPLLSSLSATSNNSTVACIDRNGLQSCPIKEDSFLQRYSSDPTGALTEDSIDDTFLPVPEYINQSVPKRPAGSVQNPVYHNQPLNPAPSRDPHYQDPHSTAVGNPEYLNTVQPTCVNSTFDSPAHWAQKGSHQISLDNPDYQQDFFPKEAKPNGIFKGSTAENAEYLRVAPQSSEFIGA

`C#CCOc1cc2c(Nc3cccc(Cl)c3)ncnc2cc1OC`: in [1], the inhibition result was “Active”. Further, in [2], the IC50 – broadly, the concentration needed to halve the response being measured – was 25.9 nM.
For the compound `C#CCCCCCOc1cc2c(Nc3ccc(F)c(Cl)c3)ncnc2cc1OC`, the IC50 in experiment [2] was found to be 32.7 nM.
For `CCCCCCOc1cc2c(Nc3ccc(F)c(Cl)c3)ncnc2cc1OC`, in [2], the IC50 stood at 106 nM.
On the same count and under the same terms, the same measure for `C#CCCCOc1cc2c(Nc3cccc(Cl)c3)ncnc2cc1OC`: 17.7 nM.
With `C#CCCCOc1cc2c(Nc3ccc(F)c(Cl)c3)ncnc2cc1OC`, growth with A-431 [3] was halved (GI50) at 221 nM. Further, the Activity in the experiment with A-431 [4] is given as 11.7%; in the experiment on A-431 [5] it was 12.5%; in the experiment on A-431 [6], 22.1%; in the experiment on A-431 [7] it was 1.1%; with A-431 [8], 65.3%; with A-431 [9], 81.2%. For the same compound, the Activity in the experiment on A-431 [10] is recorded as 13.5%; in the experiment with A-431 [11] it was 34.7%; in the experiment on A-431 [12], 4.2%; in the experiment with A-431 [13], 53.5%. Further, the IC50 in experiment [2] came out at 2.53 nM.
With `C#CCOc1cc2c(Nc3ccc(F)c(Cl)c3)ncnc2cc1OC`, in [1], the inhibition result is “Active”. In experiment [2], the IC50 was determined as 14.8 nM.
With `C=CCCCCOc1cc2c(Nc3ccc(F)c(Cl)c3)ncnc2cc1OC`, the IC50 in experiment [2] turned out to be 32.6 nM.
Take `C#Cc1cc2c(Nc3ccc(F)c(Cl)c3)ncnc2cc1OC`: the half-inhibitory concentration (IC50) in experiment [2] was more than 1000 nM.
